# Test results published in PMC6008491, “Discovery of a novel allosteric inhibitor scaffold for polyadenosine-diphosphate-ribose polymerase 14 (PARP14) macrodomain 2” (Bioorganic & Medicinal Chemistry, 2018).
# Structures can show the parent of a compound that is named as a salt.
# Target: T1, PARP14 MD2 (Homo sapiens, UniProt Q460N5)
# T1 sequence (Q460N5 1003-1190 limits assumed): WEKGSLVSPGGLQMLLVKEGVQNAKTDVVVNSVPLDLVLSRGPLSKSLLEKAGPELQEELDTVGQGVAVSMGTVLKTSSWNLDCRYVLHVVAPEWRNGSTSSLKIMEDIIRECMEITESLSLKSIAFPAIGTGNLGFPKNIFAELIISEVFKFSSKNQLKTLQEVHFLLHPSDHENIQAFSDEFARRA
# Assay: AlphaScreen competitive binding assay, displacement of ADP-ribose peptide from PARP14 MD2
# Parameters: PARP14 MD2 (second MD of PARP14)
# Settings: not given
# Text: Compounds were profiled for binding activity with PARP14 MD2 through a competitive (AlphaScreen™) binding assay measuring the displacement of ADP-ribose peptide from PARP14 MD2.[11a]
row,inhibition of PARP14 MD2 (in words),SMILES
1,complete loss of activity,"CC(Nc1ccccc1-c1cccc2c1[nH]c1ccccc12)C(F)(F)F (racemic) [compound 51, (±)-2-(9H-Carbazol-1-yl)-N-(1,1,1-trifluoropropan-2-yl)aniline]"
2,completely inactive,"CC(=O)Nc1ccccc1-c1ccccc1Nc1ccccc1 [compound 31, N-[2'-(Phenylamino)-(1,1'-biphenyl)-2-yl]acetamide]"
3,inactive,"CC(=O)Nc1ccccc1-c1cccc2c(=O)c3ccccc3[nH]c12 [compound 33, N-[2-(9-Oxo-9,10-dihydroacridin-4-yl)phenyl]acetamid]"
4,inactive,"COc1ccc2[nH]c3c(-c4ccccc4NC(C)=O)cccc3c2c1 [compound 39, N-[2-(6-Methoxy-9H-carbazol-1-yl)phenyl]acetamide]"

row,SMILES,inhibition of PARP14 MD2 (in words)
1,"CC(=O)Nc1ccccc1-c1cccc2c3c([nH]c12)CCNC3 [compound 47, N-[2-(2,3,4,5-Tetrahydro-1H-pyrido[4,3-b]indol-6-yl)phenyl]acetamide hydrochloride]",inactive

# Same assay, conditions: Table 1; AlphaScreen, PARP14 MD2; read-out: IC50
row,SMILES,IC50 [µM]
1,CC(=O)Nc1cnccc1-c1cccc2c1[nH]c1ccccc12 [compound 17],> 50
2,"CC(C)(C)NC(=O)Nc1ccccc1-c1cccc2c1[nH]c1ccccc12 [compound 49, 1-[2-(9H-Carbazol-1-yl)phenyl]-3-(tert-butyl)urea]",7.2 ± 1.4
3,"CC(=S)Nc1ccccc1-c1cccc2c1[nH]c1ccccc12 [compound 52, N-[2-(9H-Carbazol-1-yl)phenyl]thioacetamide]",10.5 ± 0.4
4,"CCNc1ccccc1-c1cccc2c1[nH]c1ccccc12 [compound 53, 2-(9H-Carbazol-1-yl)-N-ethylaniline]",> 50
5,"CCN(C(C)=O)c1ccccc1-c1cccc2c1[nH]c1ccccc12 [compound 54, N-[2-(9H-Carbazol-1-yl)phenyl]-N-ethylacetamide]",> 50
6,"Cc1ccc(-c2cccc3c2[nH]c2ccccc23)c(NS(C)(=O)=O)c1 [compound 55, N-(2-(9H-Carbazol-1-yl)-5-methylphenyl)methanesulfonamide]",1.1 ± 0.1
7,"CS(=O)(=O)Nc1ccc(C(F)(F)F)cc1-c1cccc2c1[nH]c1ccccc12 [compound 58, N-(2-(9H-Carbazol-1-yl)-4-(trifluoromethyl)phenyl)methanesulfonamide]",> 50
8,"Cc1ccc(-c2cccc3c2[nH]c2ccccc23)c(N)c1 [compound 59, 2-(9H-Carbazol-1-yl)-5-methylaniline]",> 50
9,"Nc1ccc(C(F)(F)F)cc1-c1cccc2c1[nH]c1ccccc12 [compound 60, 2-(9H-Carbazol-1-yl)-4-(trifluoromethyl)aniline]",> 50
10,"Cc1cccc(N)c1-c1cccc2c1[nH]c1ccccc12 [compound 61, 2-(9H-Carbazol-1-yl)-3-methylaniline]",> 50
11,"CCS(=O)(=O)Nc1ccccc1-c1cccc2c1[nH]c1ccccc12 [compound 62, N-(2-(9H-carbazol-1-yl)phenyl)ethanesulfonamide]",1.2 ± 0.03
12,"CCCS(=O)(=O)Nc1ccccc1-c1cccc2c1[nH]c1ccccc12 [compound 63, N-(2-(9H-Carbazol-1-yl)phenyl)propane-1-sulfonamide]",2.9 ± 0.1
13,"CCCCS(=O)(=O)Nc1ccccc1-c1cccc2c1[nH]c1ccccc12 [compound 64, N-(2-(9H-Carbazol-1-yl)phenyl)butane-1-sulfonamide]",3.3 ± 0.1
14,"CN(C)CC(=O)Nc1ccccc1-c1cccc2c1[nH]c1ccccc12 [compound 65, N-(2-(9H-carbazol-1-yl)phenyl)-2-(dimethylamino)acetamide]",5.5 ± 0.6
15,"CCC(=O)Nc1ccccc1-c1cccc2c1[nH]c1ccccc12 [compound 66, N-(2-(9H-carbazol-1-yl)phenyl)propionamide]",1 ± 0.03

# Further lines, results first:
row,IC50 [µM],SMILES
1,0.9 ± 0.04,"CCCC(=O)Nc1ccccc1-c1cccc2c1[nH]c1ccccc12 [compound 67, N-(2-(9H-carbazol-1-yl)phenyl)butyramide]"
2,> 50,"CCCCC(=O)Nc1ccccc1-c1cccc2c1[nH]c1ccccc12 [compound 68, N-(2-(9H-carbazol-1-yl)phenyl)pentanamide]"
3,8.6 ± 0.4,"COCCS(=O)(=O)Nc1ccccc1-c1cccc2c1[nH]c1ccccc12 [compound 69, N-(2-(9H-Carbazol-1-yl)phenyl)-2-methoxyethane-1-sulfonamide]"
4,> 50,"Cc1oncc1S(=O)(=O)Nc1ccccc1-c1cccc2c1[nH]c1ccccc12 [compound 70, N-(2-(9H-Carbazol-1-yl)phenyl)-5-methylisoxazole-4-sulfonamide]"
5,2.5 ± 0.1,"CN(C)S(=O)(=O)Nc1ccccc1-c1cccc2c1[nH]c1ccccc12 [compound 71, N1-(2-(9H-Carbazol-1-yl)phenyl)-N2,N2-dimethylsulfamide]"
6,> 50,"O=S(=O)(Nc1ccccc1-c1cccc2c1[nH]c1ccccc12)c1ccccc1 [compound 72, N-(2-(9H-Carbazol-1-yl)phenyl)benzenesulfonamide]"
7,1.1 ± 0.07,"O=C(Nc1ccccc1-c1cccc2c1[nH]c1ccccc12)C(F)(F)F [compound 73, N-(2-(9H-carbazol-1-yl)phenyl)-2,2,2-trifluoroacetamide]"
8,1.2 ± 0.03,"O=C(Nc1ccccc1-c1cccc2c1[nH]c1ccccc12)C1CC1 [compound 74, N-(2-(9H-carbazol-1-yl)phenyl)cyclopropanecarboxamide]"
9,> 50,"O=C(Nc1ccccc1-c1cccc2c1[nH]c1ccccc12)C1CCCCC1 [compound 75, N-(2-(9H-carbazol-1-yl)phenyl)cyclohexanecarboxamide]"
10,> 50,"O=C(Nc1ccccc1-c1cccc2c1[nH]c1ccccc12)c1ccco1 [compound 76, N-(2-(9H-carbazol-1-yl)phenyl)furan-2-carboxamide]"
11,1.9 ± 0.07,"O=C(Nc1ccccc1-c1cccc2c1[nH]c1ccccc12)c1ccccc1 [compound 77, N-(2-(9H-carbazol-1-yl)phenyl)benzamide]"
12,7.6 ± 0.3,"O=C(Cc1ccccc1)Nc1ccccc1-c1cccc2c1[nH]c1ccccc12 [compound 78, N-(2-(9H-Carbazol-1-yl)phenyl)-2-phenylacetamide]"
13,3.6 ± 0.3,"O=S(=O)(Cc1ccccc1)Nc1ccccc1-c1cccc2c1[nH]c1ccccc12 [compound 79, N-(2-(9H-Carbazol-1-yl)phenyl)-1-phenylmethanesulfonamide]"
14,> 50,"COc1ccccc1C(=O)Nc1ccccc1-c1cccc2c1[nH]c1ccccc12 [compound 80, N-(2-(9H-Carbazol-1-yl)phenyl)-2-methoxybenzamide]"
15,12.7 ± 1.5,"COc1cccc(C(=O)Nc2ccccc2-c2cccc3c2[nH]c2ccccc23)c1 [compound 81, N-(2-(9H-Carbazol-1-yl)phenyl)-3-methoxybenzamide]"
16,9 ± 1.4,"COc1ccc(C(=O)Nc2ccccc2-c2cccc3c2[nH]c2ccccc23)cc1 [compound 82, N-(2-(9H-Carbazol-1-yl)phenyl)-4-methoxybenzamide]"

# Same assay, conditions: Table 2; AlphaScreen, PARP14 MD2; read-out: IC50
row,IC50 [µM],SMILES
1,2.4 ± 0.2,"N#Cc1cc(CC(=O)Nc2ccccc2-c2cccc3c2[nH]c2ccccc23)ccn1 [compound 86, N-(2-(9H-Carbazol-1-yl)phenyl)-2-(2-cyanopyridin-4-yl)acetamide]"
2,3.5 ± 0.2,"N#Cc1ccc(CC(=O)Nc2ccccc2-c2cccc3c2[nH]c2ccccc23)cn1 [compound 87, N-(2-(9H-Carbazol-1-yl)phenyl)-2-(6-cyanopyridin-3-yl)acetamide]"

# Same assay, conditions: text and figures; read-out: PARP14 MD2 IC50
row,IC50 [µM],SMILES
1,> 50,CC(=O)Nc1ccncc1-c1cccc2c1[nH]c1ccccc12 [compound 15]
2,> 50,"CC(=O)Nc1cccnc1-c1cccc2c1[nH]c1ccccc12 [compound 16, N-[2-(9H-Carbazol-1-yl)pyridin-3-yl]acetamide]"
3,30,CC(=O)Nc1ccccc1-c1nccc2c1[nH]c1ccccc12 [compound 18]
4,> 50,CC(=O)Nc1ccccc1-c1cn2c3ccccc3c3ccnc(c1=O)c32 [compound 19]
5,> 50,"CC(=O)Nc1ccccc1-c1cn2c3ccccc3c3cccc(c1=O)c32 [compound 20, N-[2-(4-Oxo-4H-pyrido[3,2,1-jk]carbazol-5-yl)phenyl]acetamide]"
6,> 50,"CC(=O)Nc1ccccc1-c1cccc2c3ccccc3n(C)c12 [compound 24, N-[2-(9-Methyl-9H-carbazol-1-yl)phenyl]acetamide]"
7,> 50,"CC(=O)Nc1ccccc1-c1cccc2c3ccccc3n(Cc3ccccc3)c12 [compound 25, N-[2-(9-Benzyl-9H-carbazol-1-yl)phenyl]acetamide]"
8,> 50,"CC(=O)Nc1ccccc1-c1cccc2c1oc1ccccc12 [compound 26, N-[2-(Dibenzofuran-4-yl)phenyl]acetamide]"
9,2.5,"CC(=O)Nc1ccccc1-c1cccc2c1sc1ccccc12 [compound 27, N-[2-(Dibenzothiophen-4-yl)phenyl]acetamide]"
10,> 50,"CC(=O)Nc1ccccc1-c1cccc2c1C(=O)c1ccccc1-2 [compound 28, N-[2-(9-Oxo-9H-fluoren-1-yl)phenyl]acetamide]"
11,> 50,"CC(=O)Nc1ccccc1-c1cccc2c1C(O)c1ccccc1-2 (stereo not shown) [compound 29, N-[2-(9-Hydroxy-9H-fluoren-1-yl)phenyl]acetamide]"
12,1.4,"CC(=O)Nc1ccccc1-c1cccc2c1[nH]c1c(Cl)c(Cl)ccc12 [compound 37, N-[2-(7,8-Dichloro-9H-carbazol-1-yl)phenyl]acetamide]"
13,3,"CC(=O)Nc1ccccc1-c1cccc2c1[nH]c1ccc(Cl)cc12 [compound 38, N-[2-(6-Chloro-9H-carbazol-1-yl)phenyl]acetamide]"
14,1.1,"CC(=O)Nc1ccccc1-c1cccc2c3c([nH]c12)CCCC3 [compound 44, N-[2-(5,6,7,8-Tetrahydro-9H-carbazol-1-yl)phenyl]acetamide]"
